Where two headings read alike, the source gives them in different places.
What was measured:
[1] = system: Wild type pNL4-3; experiment: Antiviral activity (EC50), deCIPhR cell system, beta-galactosidase indicator cell readout; type: cell-based, HIV-1
[2] = system: Recombin ant provirus from the patient 7007984; experiment: microbe, parasite or virus in culture; type: cell-based, HIV-1
[3] = system: Recombin ant provirus from the patient 6021959; experiment: microbe, parasite or virus in culture; type: cell-based, HIV-1
[4] = system: NNRTI (RTMDR) 5 resistant; experiment: microbe, parasite or virus in culture; type: cell-based, HIV-1; conditions: Human immunodeficiency virus 1
[5] = Cytotoxicity, Alamar Blue Cell Viability Assay; conditions: deciphr cells
[6] = system: deCIPhR™ cell system
[7] = system: NRTI (RTMC) resistant; experiment: microbe, parasite or virus in culture; type: cell-based, HIV-1; conditions: Human immunodeficiency virus 1
[8] = system: Wild type #; experiment: Antiviral activity (EC50) in CEMA and CEM-T4 cells; type: cell-based, HIV-1; conditions: Human immunodeficiency virus 1; wild type # marked a,b = CEMA and CEM-T4 cells
[9] = HIV-1 wild type pNL4-3, cells per table title (deCIPhR, CEMA, CEM-T4), row has no cell mark, presumably deCIPhR, read-out: EC50
[10] = recombinant provirus from patient 7007984, RT resistant mutations M41 L, K70R, A985, T215Y, read-out: EC50
[11] = recombinant provirus from patient 6021959, RT resistance mutations M41 L, E44D, T69D, L741, K103N, V108I, V118I, M184V, M230L, T215Y, G333E, read-out: EC50
[12] = Human immunodeficiency virus 1, CEM-T4

Structure (SMILES)	EC50 [1, 9]	EC50 [2, 10]	EC50 [3, 11]	EC50 [4]	CC50 [5]	EC50 [1, 12]	EC50 ([2]; Human immunodeficiency virus 1)	EC50 ([3]; Human immunodeficiency virus 1)	cytotoxicity (CD50) [6]	EC50 [7]	EC50 [8]
Cc1cn([C@H]2C[C@H](N=[N+]=[N-])[C@@H](COP(=O)(O)O)O2)c(=O)[nH]c1=O [AZTM P, reference compound]	63 nM	1030 nM	1710 nM	–	–	–	–	–	–	–	–
Cc1cn([C@H]2C[C@H](F)[C@@H](COP(=O)(O)O)O2)c(=O)[nH]c1=O [FLT MP, reference compound]	10 nM	18 nM	30 nM	–	–	–	–	–	–	–	–
COCCCCCCCCCCCC(=O)OC[C@H]1O[C@@H](n2cc(C)c(=S)[nH]c2=O)C[C@@H]1F [WA2 1, 1-(2,3-dideoxy-3-fluoro-5-O-(12-methoxydodecanoyl)-b-D-ribofuranosyl)-4-thiothymine]	–	–	–	550 nM	> 200000 nM	269 nM	3150 nM	9260 nM	not toxic	180 nM	330 nM
CCSCCCCCCCCCCCC(=O)OC[C@H]1O[C@@H](n2cc(C)c(=S)[nH]c2=O)C[C@@H]1F [WA-2 2, 1-(2,3-dideoxy-5-O-(12-thioethyldodecanoyl)-3-fluoro-b-D-ribofuranosyl)-4-thiothymine]	–	–	–	–	> 200000 nM	998 nM	5920 nM	10000 nM	not toxic	75 nM	120 nM
CCSCCCCCCCCCCC(=O)OC[C@H]1O[C@@H](n2cc(C)c(=S)[nH]c2=O)C[C@@H]1F [WA-2 3, 1-(5-O-(2,3-dideoxy-11-thioethylundecanoyl)-3-fluoro-b-D-ribofuranosyl)-4-thiothymine]	–	–	–	480 nM	> 200000 nM	965 nM	–	5520 nM	not toxic	450 nM	450 nM
Cc1cn([C@H]2C[C@H](F)[C@@H](COC(=O)CCCCCCCCCCCN=[N+]=[N-])O2)c(=O)[nH]c1=S [WA- 2 0, 1-(5-O-(12-azidododecanoyl)-2,3-dideoxy-3-fluoro-b-D-ribofuranosyl)-4-thi othymine]	–	–	–	100 nM	> 200000 nM	822 nM	2880 nM	4640 nM	not toxic	≤ 100000 nM	450 nM
CCCCCCCCCCCCCC(=O)OC[C@H]1O[C@@H](n2cc(C)c(=S)[nH]c2=O)C[C@@H]1F [WA- 18, 1-(2,3-dideoxy-3-fluoro-5-O-(12-tetradodecanoyl)-b-D-ribofuranosyl)-4-thio thymine]	–	–	–	45 nM	> 200000 nM	421 nM	2400 nM	8340 nM	not toxic	150 nM	130 nM
Cc1cn([C@H]2C[C@H](F)[C@@H](COC(=O)CCCCCCCCCCCBr)O2)c(=O)[nH]c1=S [WA- 19, 1-(5-O-(12-bromododecanoyl)-2.3-dideoxy-3-fluoro-b-D-ribofuranosyl)-4-th iothymine]	–	–	–	–	> 200000 nM	710 nM	–	10000 nM	not toxic	–	–

— EP2402356A2, “Modified 2',3'-dideoxynucleosides for treatment infections caused by human immunodeficiency virus (HIV) multidrug resistant strains, method of their synthesis and the pharmaceutical agent containing these nucleosides” (Instytut Biochemii I Biofizyki Pan, priority 2010, dated 2012)
